“Also recorded” adds a separate entry of the source.
What was measured:
Format in all cases: cell-based, human
[1] = tested on: histone methylation marks (H3K27me3, H3K9me3, H3K4me3, H3K9/K14Ac) in hESCs; assay: Western blot analysis of histone marks; conditions: 1MNA 0.5 mM, 72 hr, primed hESCs (Elf1 AF), low L-methionine media
Description: Cellular extracts were prepared using a lysis buffer containing 20 mM Tris HCl (pH 7.5), 150 mM NaCl, 15% glycerol, 1% Triton, 25 mM (3-glycerolphosphate, 50 mM NaF, 10 mM sodium pyrophosphate, orthovanadate, PMSF), protease inhibitor cocktail (Roche) and 2% SDS. 25 U of BENZONASE® nuclease (EMD Chemicals) and 20 mM of DTT were added to the lysis buffer right before use. Protein concentrations were then determined by the method of Bradford. Fifteen micrograms of protein extracts were loaded, separated by 4-20% SDS-PAGE, and transferred to polyvinylidene difluoride membranes (Hybond-N+, Amersham Pharmacia Biotech). Membranes were blocked with 5% nonfat dry milk for 60 min at room temperature, and incubated overnight at 4° C. with primary antibody. […]
Naïve hESCs (Elf1 2iLIF) grown on MATRIGEL® were treated with 100 μM of STAT3 inhibitor (Selleckchem) for 6 hr or 24 hr and analyzed for methylation marks by Western blot and ChIP Seq. […]
(§1) Naïve Elf1 2iLIF cells were transfected in MATRIGEL® coated plates in MEF-CM supplemented with ROCK inhibitors (Torcis) using LIPOFECTAMINE™ RNAiMAX™ (Life Technologies). siRNA targeting NNMT (Hs-NNMT-8) was purchased from Qiagen as FLEXITUBE® siRNA premix, and siRNA targeting luciferase was used as control. siRNAs against NNMT and luciferase were used at 50 nM final concentration. […] Bright field and fluorescence images were taken after 3 days. […]

[2] = tested on: Wnt signaling (BAR reporter) in Elf1 cells; assay: BAR Wnt reporter activity in Elf1 reporter cells; conditions: for BAR reporter activity: naïve Elf1 cells, 72 h, IWP2 2 μM, XAV939 5 μM, siRNA 10 nM
Description: Elf1 cells grown in naïve media (2iL or 2iLIF) or primed media (AF) were infected with BAR reporter lentivirus and seeded onto MATRIGEL®-coated plates in MEF-CM with 10 μM Y-27632, and 1 μM Thiazovivin (ROCK inhibitors, Tocris). Transduced Elf cells were cultured for a week on MATRIGEL®, then passaged onto MEF plates for further selection and expansion. Elf1 naïve reporter cells were harvested as single cells via TRYPLE™ Express and FACS sorted for the population with both Venus and DsRed (Discosoma sp. Red fluorescent protein) positive signals. DsRed positive colonies of Elf1 primed reporter cells were manually dissected, transferred onto MEF plates, and the same positive selection was repeated one more round or two depending on the selection efficiency. Negative colonies were manually removed as a negative selection. Once the DsRed positive lines were isolated and stable lines established, the primed Elf1 reporter cells were passaged with dispase.
(§2) Wnt secretion and signaling were inhibited in naïve hESCs (Elf1, WIN1) by treatment with IWP2 (2 μM, Torcis) or XAV939 (5 μM, Sigma). Wnt pathway was activated in primed Elf1 AF reporter cells using a GSK3 inhibitor, CHIR99021 (72 hr, 10 μM, AxonMedChem). Both IWP2 and CHIR99021 were reconstituted in DMSO.
L and L-Wnt3A cells (ATCC) were cultured in 15 cm plates in 10% FBS/DMEM media until 90% confluent. Medium was collected every 48 hr for three batches. Biological activity of secreted Wnt3A in the individual batches of the conditional medium was confirmed in 293T-BAR reporter cells, then batches were pooled and filtered. Primed (Elf1 AF) reporter cells were grown on MATRIGEL® with 50% LCM or 50% Wnt3A-CM for 3 days prior taking bright field and fluorescent pictures.
Naïve Elf1 2iLIF cells were transfected in MATRIGEL® coated plates in MEF-CM supplemented with ROCK inhibitors (Torcis) using LIPOFECTAMINE™ RNAiMAX™ (Life Technologies). siRNA targeting NNMT (Hs-NNMT-8) was purchased from Qiagen as FLEXITUBE® siRNA premix, and siRNA targeting luciferase was used as control. siRNAs against NNMT and luciferase were used at 50 nM final concentration. Proteins and RNAs were extracted 72 hr after transfection. siRNA targeting beta-catenin (Invitrogen, CTNNBI, SILENCER® Select ID s437) and SILENCER® Select Negative Control 1 (Invitrogen) were transfected in naïve Elf1 2iLIF cells at 10 nM final concentration following a reverse transfection protocol. Bright field and fluorescence images were taken after 3 days. The efficacy of NNMT and beta-catenin siRNAs was confirmed by qPCR analysis.

[3] = tested on: naïve hESCs (WIN1, Elf1); assay: Seahorse mitostress protocol, OCR changes in response to FCCP; conditions: for OCR changes in response to FCCP: naïve hESCs (WIN1)
Description: Naïve and primed ESCs were seeded in their specific growth media onto 96-well Seahorse plates (Seahorse Bioscience) pre-coated with MATRIGEL® at 25×10^4 or 40×10^4 cells/well. Culture media were exchanged for base media (unbuffered DMEM (Sigma D5030) supplemented with sodium pyruvate (Gibco, 1 mM) and with 25 mM glucose (for mito stress assay), 25 mM glucose and 50 μM carnitine (for palmitate assay), or 2 mM glutamine (for glucose stress assay)) 1 hr prior to the assay and for the duration of the measurement. Substrates and selective inhibitors were added during the measurements to achieve final concentrations of glucose (2.5 mM), […] (FCCP, 300 nM-500 nM), oligomycin ([…]), antimycin (2.5 μM), rotenone (2.5 μM), palmitate (50 μM in BSA), BSA (bovine serum albumin) and ETO (50 μM).
The mitochondrial stress protocol starts with the measurement of baseline oxygen consumption rate (OCR) and extracellular acidification rate (ECAR) followed by measurement of OCR and ECAR changes in response to addition of oligomycin, FCCP and finally antimycin and rotenone.
Then palmitate assay starts with the measurement of baseline OCR followed by measurement of OCR changes in response to injection of palmitate or BSA (in negative controls) and ETO. The OCR and ECAR values were further normalized to the number of cells present in each well, quantified by Hoechst staining (H033342; Sigma-Aldrich) as measured using fluorescence at 355 nm excitation and 460 nm emission (ENVISION® 2104 Multilabel reader, Perkin Elmer). Changes in OCR and ECAR in response to substrates and inhibitors addition were defined as the maximal change after the chemical addition compared to the last OCR value before the addition.
as §2
WIN1 and Elf1 cells were seeded in Seahorse plates in naïve (WIN1, Elf1) or primed (WIN1 AF) conditions with or without Kynurenine (100 μM, Sigma) and mitostress protocol was performed 2 days later.
WIN1 cells were seeded in Seahorse plates 2 days prior change of media with media without L-methionine (Sigma 0422 supplemented with 0.584 gm/L L-glutamine) and addition of SAM (500 μM). Five hours later Seahorse mitostress protocol was performed.

[4] = tested on: NNMT, miR-372, miR-10a expression in naïve hESCs (Elf1); assay: qPCR analysis of NNMT and microRNA expression; conditions: IWP2 2 μM, 72 hr
Description: Total RNA was extracted using TRIZOL® and subsequently analyzed by SYBR® green qPCR with the 7300 real time PCR system (Applied Biosystems) as well as TAQMAN® qPCR (Applied Biosystems).
qPCR of miRNAs was conducted using AQMAN®miRNA assays (Applied Biosystems). Raw Ct (threshold cycle) values for miRNAs were normalized to RNU66 (endogenous snoRNA, internal control). Linear expression values for all qPCR experiments were calculated using the 2 (−ΔCt) method. P-values were calculated using a student's t-test (*p<0.05, **p<0.01, ***p<0.001).
as §2, §1

[5] = primed hESCs (Elf1 AF), 3 days, CHIR99021 10 μM, 50% Wnt3A-CM

In the case of `C[n+]1cccc(C(N)=O)c1` [1MNA, 1-methylnicotinamide], the H3K27me3 mark [1] is reported as “reduces” and the H3K27me3 mark ([1]; listed as 1 MNA) is reported as “decreased”.
For `Cc1ccc2nc(NC(=O)CSc3nc4c(c(=O)n3-c3ccccc3)SCC4)sc2c1` [IWP2], the BAR reporter activity [2] was “represses; also recorded: inhibit”, the “OCR changes after FCCP” value ([3]; IWP2 2 μM, 48 hr, naïve hESCs (Elf1, WIN1) and transitioning to primed (WIN1 AF)) was “decreases” and the “NNMT expression (qPCR)” value [4] was “downregulates”. For the same molecule, the “miR-372 expression (qPCR)” value [4] was “downregulates”.
For `Nc1ccccc1C(=O)CC(N)C(=O)O` (stereo not shown) [kynurenine], the “OCR changes in response to FCCP” value ([3]; kynurenine 100 μM, 2 days) was “reduced” and the “naïve to primed hESC metabolic switch” value ([3]; kynurenine added to the media (FIG. 4E)) was “accelerated”.
`Oc1nc(-c2ccc(C(F)(F)F)cc2)nc2c1CSCC2` [XAV939] was tested, and the BAR reporter activity [2] was “dramatically downregulated; also recorded: inhibit”.
For `Cc1c[nH]c(-c2cnc(NCCNc3ccc(C#N)cn3)nc2-c2ccc(Cl)cc2Cl)n1` [CHIR99021], the BAR reporter [2, 5] was “re-activation” and the differentiation [2, 5] was “induces differentiation”.
In the case of `C[S+](CC[C@H](N)C(=O)[O-])C[C@H]1O[C@@H](n2cnc3c(N)ncnc32)[C@H](O)[C@@H]1O` (stereo partly shown) [SAM, S-adenosyl methionine], the “OCR changes in response to FCCP” value ([3]; SAM 500 μM, 5 hr, media without methionine) is reported as “reduces” and the “metabolic profile in naïve hESCs” value ([3]; high levels of SAM (FIG. 4K-4L)) is reported as “induce a primed-like metabolic profile”.

From patent US20170121678A1, “METHODS AND COMPOSITIONS TO STABILIZE DIFFERENT STEM CELL STATES” (UNIVERSITY OF WASHINGTON - CENTER COMMERCIALIZATION, priority 2014, published 2017)
